US20260048138A1, “NOVEL PI3K AND/OR PIKK INHIBITORS, ANTIBODY-DRUG CONJUGATES COMPRISING THE SAME AND USES THEREOF” (HUTCHMED LIMITED, priority 2024, published 2026)

These compounds were tested on MDA-MB-453 (assay: Inhibition of cell proliferation by payloads in vitro (CCK-8)). Settings: Homo sapiens, MDA-MB-453, 144 h, read-out: IC50, nM MDA-MB-453; payloads, proliferation, 6 days, CCK-8.
Assay type: cell-based
Protocol: (§1) The cells were added to a 96-well plate at 1.0×10^3 cells/well and 100 μL/well and incubated in a cell culture incubator at 37° C. and 5% CO2. The test compounds were diluted with a DMEM medium containing 2% DMSO (Sigma-Aldrich, Cat. No. 34869) in a 4-fold gradient to the corresponding concentrations. […] The final concentration of DMSO was 0.2%. The cells were incubated in a cell culture incubator at 37° C. and 5% CO2 for 6 days.
(§2) After 6 days of culture, 10 μL/well of Cell Counting Kit-8 reagent (CCK-8, Dojindo, Cat. No. CK04) was added to the wells and mixed well with shaking. The cells were incubated in a cell culture incubator at 37° C. and 5% CO2 for 0.50-4.0 hours.
(§3) The OD450 optical density value was read on an EnVision™ multi-function microplate reader (PerkinElmer), and the inhibition rates (%) of the compounds were calculated. Then, the half-maximal inhibitory concentration (IC50) values were obtained using the XLfit5 software (ID Business Solutions Limited). All samples were tested in duplicate wells.
(§4) [formula] • wherein • OD450test compound represents the optical density value in the wells of the compounds to be tested; • OD450cell represents the optical density value in the wells of cell controls; • OD450background represents the optical density value in the wells of cell-free controls.

| Compound | IC50 [nM] |
| --- | --- |
| COc1ncc(-c2ccc3ncc4ncc(C5CC5)n4c3c2)cc1NS(=O)(=O)N1CCNCC1 [Compound 23] | 0.55 |
| COc1ncc(-c2ccc3ncc4cnc(C5CC(F)(F)C5)n4c3c2)cc1NS(=O)(=O)N1CCNCC1 [Compound 24] | 0.24 |
| COc1ncc(-c2ccc3ncc4c(c3c2)n(C2CC(F)(F)C2)c(=O)n4C)cc1NS(=O)(=O)N1CCNCC1 [Compound 25] | 0.34 |
| COc1ncc(-c2ccc3ncc4c(c3c2)n([C@H]2C[C@H](CO)C2)c(=O)n4C)cc1NS(=O)(=O)N1CCN(C)CC1 [Compound 26] | 1.8 |
| COc1ncc(-c2ccc3ncc4c(c3c2)n([C@@H]2C[C@@H]2F)c(=O)n4C)cc1NS(=O)(=O)N1CCNCC1 [Compound 27] | 0.24 |
| COc1ncc(-c2ccc3ncc4c(C)nc(C5CC5)n4c3c2)cc1NS(=O)(=O)N1CCNCC1 [Compound 31] | 0.24 |
| COc1ncc(-c2ccc3ncc4c(c3c2)n(CC(F)(F)F)c(=O)n4C)cc1NS(=O)(=O)N1CCNCC1 [Compound 32] | 0.22 |
| COc1ncc(-c2ccc3ncc4c(c3c2)n(C2CC2)c(=O)n4CC(F)(F)F)cc1NS(=O)(=O)N1CCNCC1 [Compound 33] | 2.3 |
| Cn1c(=O)n(C2CC2)c2c3cc(-c4cnc(OCC(F)(F)F)c(NS(=O)(=O)N5CCNCC5)c4)ccc3ncc21 [Compound 34] | 2.8 |
| [2H]C([2H])([2H])n1c(=O)n(C2CC2)c2c3cc(-c4cnc(OC)c(NS(=O)(=O)N5CCNCC5)c4)ccc3ncc21 [Compound 35] | 0.22 |
| COc1ncc(-c2ccc3ncc4nnc(C5CC5)n4c3c2)cc1NS(=O)(=O)N1CCN(C)CC1 [Reference compound 1, reference compound] | 7.9 |

What follows are compounds tested on MDA-MB-468 in the same assay as above. Settings: Homo sapiens, MDA-MB-468, 144 h; payloads, proliferation, 6 days, CCK-8; read-out: IC50, nM MDA-MB-468.
Assay type: cell-based
Protocol: as §1, §2, §3, §4

| Compound | IC50 [nM] |
| --- | --- |
| COc1ncc(-c2ccc3ncc4nnc(C5CC5)n4c3c2)cc1NS(=O)(=O)N1CCNCC1 [Compound 9] | 1 |
| COc1ncc(-c2ccc3ncc4cnc(C5CCC5)n4c3c2)cc1NS(=O)(=O)N1CCNCC1 [Compound 18] | 0.091 |
| COc1ncc(-c2ccc3ncc4cnc(C)n4c3c2)cc1NS(=O)(=O)N1CCNCC1 [Compound 20] | 1 |
| COc1ncc(-c2ccc3ncc4ncc(C5CC5)n4c3c2)cc1NS(=O)(=O)N1CCNCC1 [Compound 23] | 1.4 |
| COc1ncc(-c2ccc3ncc4cnc(C5CC(F)(F)C5)n4c3c2)cc1NS(=O)(=O)N1CCNCC1 [Compound 24] | 0.2 |
| COc1ncc(-c2ccc3ncc4c(c3c2)n(C2CC(F)(F)C2)c(=O)n4C)cc1NS(=O)(=O)N1CCNCC1 [Compound 25] | 0.2 |
| COc1ncc(-c2ccc3ncc4c(c3c2)n([C@H]2C[C@H](CO)C2)c(=O)n4C)cc1NS(=O)(=O)N1CCN(C)CC1 [Compound 26] | 1.9 |
| COc1ncc(-c2ccc3ncc4c(c3c2)n([C@@H]2C[C@@H]2F)c(=O)n4C)cc1NS(=O)(=O)N1CCNCC1 [Compound 27] | 0.29 |
| COc1ncc(-c2ccc3ncc4c(c3n2)n(C2CC2)c(=O)n4C)cc1NS(=O)(=O)N1CCNCC1 [Compound 28] | 0.24 |
| COc1ncc(-c2ccc3ncc4c(c3c2)n(CC(F)(F)F)c(=O)n4C)cc1NS(=O)(=O)N1CCNCC1 [Compound 32] | 0.24 |
| COc1ncc(-c2ccc3ncc4c(c3c2)n(C2CC2)c(=O)n4CC(F)(F)F)cc1NS(=O)(=O)N1CCNCC1 [Compound 33] | 3 |
| Cn1c(=O)n(C2CC2)c2c3cc(-c4cnc(OCC(F)(F)F)c(NS(=O)(=O)N5CCNCC5)c4)ccc3ncc21 [Compound 34] | 3.4 |
| [2H]C([2H])([2H])n1c(=O)n(C2CC2)c2c3cc(-c4cnc(OC)c(NS(=O)(=O)N5CCNCC5)c4)ccc3ncc21 [Compound 35] | 0.2 |
| COc1ncc(-c2ccc3ncc4nnc(C5CC5)n4c3c2)cc1NS(=O)(=O)N1CCN(C)CC1 [Reference compound 1, reference compound] | 6 |

What follows are compounds tested against T1, Human PIK3CA/PIK3R1 (p110α/p85α) recombinant protein (Homo sapiens, UniProt P42336) (assay: PIK3CA/PIK3R1 (p110α/p85α) kinase activity, Transcreener ADP2 FP). Settings: 10 μM ATP, 30 μM PIP2:PS; read-out: PIK3CA/PIK3R1 (p110α/p85α) (Enzyme, IC50).
T1 construct: His tag; purchased Invitrogen PV4788
Assay type: biochemical
Protocol: The complex formed by the binding of the ADP Alexa633 Tracer to the ADP2 antibody therein could produce fluorescence polarization. […] Assay is carried out according to the instruction of the kit. […] After that, 10 μl PIK3CA/PIK3R1 (p110α/p85α) enzyme solution was added to each well; then, 10 μl of a mixed solution of ATP and PIP2:PS lipid kinase substrate was added to each well, and the mixture was centrifuged at 1000 rpm for 60 seconds; Then, the 96-well plate was placed in a constant temperature incubator protected from light and incubated at room temperature for 1 hour. […] After the enzymatic reaction was completed, 25 μl of ADP detection mixture was added to the positive control group, 25 μl of ADP detection mixture without ADP^2 antibody was added to the negative control group, and 25 μl of ADP detection mixture without tracer-label ADP and ADP^2 antibody was added to the blank control group. Then centrifugation was performed at 1000 rpm for 60 seconds. The 96-well plate was placed in a constant temperature incubator protected from light, and incubated at room temperature for 1.5 hours. […] [formula] The inhibition rate was calculated using the formula as below: [formula]

T1 sequence (P42336 whole entry): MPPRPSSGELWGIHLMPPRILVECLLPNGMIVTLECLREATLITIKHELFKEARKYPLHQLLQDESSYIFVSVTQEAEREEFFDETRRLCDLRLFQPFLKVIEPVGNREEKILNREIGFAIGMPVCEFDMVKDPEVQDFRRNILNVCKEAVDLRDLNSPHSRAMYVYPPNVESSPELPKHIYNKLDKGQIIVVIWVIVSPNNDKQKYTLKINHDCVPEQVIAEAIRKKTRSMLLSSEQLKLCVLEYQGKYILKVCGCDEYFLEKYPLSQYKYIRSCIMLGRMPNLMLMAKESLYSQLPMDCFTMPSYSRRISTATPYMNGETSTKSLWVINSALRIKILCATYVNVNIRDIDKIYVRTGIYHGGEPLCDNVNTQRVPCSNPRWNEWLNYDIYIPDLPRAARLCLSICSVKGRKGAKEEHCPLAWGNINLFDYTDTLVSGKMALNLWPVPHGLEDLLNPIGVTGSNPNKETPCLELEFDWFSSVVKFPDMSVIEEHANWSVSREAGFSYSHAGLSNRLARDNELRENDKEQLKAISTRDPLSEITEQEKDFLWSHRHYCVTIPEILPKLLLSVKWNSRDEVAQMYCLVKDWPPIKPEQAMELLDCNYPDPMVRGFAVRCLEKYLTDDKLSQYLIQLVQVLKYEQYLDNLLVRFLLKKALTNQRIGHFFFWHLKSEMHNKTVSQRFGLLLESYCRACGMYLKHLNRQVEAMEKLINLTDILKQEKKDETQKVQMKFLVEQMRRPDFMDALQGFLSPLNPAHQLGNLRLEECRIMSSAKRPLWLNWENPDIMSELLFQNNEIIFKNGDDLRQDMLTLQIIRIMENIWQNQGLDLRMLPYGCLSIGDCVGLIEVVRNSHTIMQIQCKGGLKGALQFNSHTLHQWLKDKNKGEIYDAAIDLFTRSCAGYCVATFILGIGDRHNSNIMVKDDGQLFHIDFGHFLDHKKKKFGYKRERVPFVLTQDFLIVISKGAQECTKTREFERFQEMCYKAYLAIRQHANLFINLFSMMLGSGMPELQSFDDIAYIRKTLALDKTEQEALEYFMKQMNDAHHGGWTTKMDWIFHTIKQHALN
T1 sequence (P27986 whole entry partner): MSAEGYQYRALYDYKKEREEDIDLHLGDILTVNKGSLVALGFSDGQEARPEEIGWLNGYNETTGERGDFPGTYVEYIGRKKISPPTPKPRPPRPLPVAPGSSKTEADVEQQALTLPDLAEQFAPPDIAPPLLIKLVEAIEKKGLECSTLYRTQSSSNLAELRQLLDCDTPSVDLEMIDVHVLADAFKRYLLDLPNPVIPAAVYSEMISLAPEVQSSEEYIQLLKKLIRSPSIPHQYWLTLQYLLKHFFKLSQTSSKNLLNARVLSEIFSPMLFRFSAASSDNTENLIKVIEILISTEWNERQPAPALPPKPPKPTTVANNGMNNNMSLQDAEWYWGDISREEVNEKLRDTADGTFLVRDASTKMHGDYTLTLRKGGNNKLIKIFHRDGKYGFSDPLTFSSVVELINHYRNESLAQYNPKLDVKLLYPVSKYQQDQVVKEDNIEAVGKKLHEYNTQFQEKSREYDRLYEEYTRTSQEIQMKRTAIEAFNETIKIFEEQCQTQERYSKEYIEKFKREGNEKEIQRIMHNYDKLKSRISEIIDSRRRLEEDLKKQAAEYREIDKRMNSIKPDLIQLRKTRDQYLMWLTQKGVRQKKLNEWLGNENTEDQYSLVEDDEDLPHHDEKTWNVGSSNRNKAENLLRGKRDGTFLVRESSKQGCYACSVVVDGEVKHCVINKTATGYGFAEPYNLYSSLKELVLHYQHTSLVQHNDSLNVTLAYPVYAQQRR

| Compound | IC50 [nM] |
| --- | --- |
| COc1ncc(-c2ccc3ncc4cnc(C5CCC5)n4c3c2)cc1NS(=O)(=O)N1CCNCC1 [Compound 18] | 2.1 |
| COc1ncc(-c2ccc3ncc4ncc(C5CC5)n4c3c2)cc1NS(=O)(=O)N1CCNCC1 [Compound 23] | 0.7 |
| COc1ncc(-c2ccc3ncc4cnc(C5CC(F)(F)C5)n4c3c2)cc1NS(=O)(=O)N1CCNCC1 [Compound 24] | 1.8 |
| COc1ncc(-c2ccc3ncc4c(c3n2)n(C2CC2)c(=O)n4C)cc1NS(=O)(=O)N1CCNCC1 [Compound 28] | 0.6 |
| COc1ncc(-c2ccc3ncc4c(c3c2)n(CC(F)(F)F)c(=O)n4C)cc1NS(=O)(=O)N1CCNCC1 [Compound 32] | 2.8 |

The compounds below were run against T2, Human FRAP1 (mTOR) recombinant protein (Homo sapiens, UniProt P42345) (assay: FRAP1 (mTOR) kinase activity, LanthaScreen TR-FRET). Settings: 10 μM ATP, 0.4 μM GFP-4EBP1; read-out: FRAP1 (mTOR) (Enzyme, IC50).
T2 construct: GST; purchased Invitrogen PV4753
Assay type: biochemical
Protocol: Determination of FRAP1 (mTOR) Kinase Activity • Human FRAP1 (mTOR) recombinant protein (GST tag): Invitrogen, Cat. No. PV4753; • GFP-4E-BP1: Thermo Scientific, Cat. No. PV4759; • LanthaScreenTM Tb-p4E-BP1 ([…]) antibody: Thermo Scientific, Cat. No. PV4755; • TR-FRET dilution buffer: Thermo Scientific, Cat. No. PV3574; • ATP solution (10 mM): Thermo Scientific, Cat. No. PV3227; • HEPES (1 M): Gibco, Cat. No. 15630-106; • EDTA (0.5 M), pH 8.0, RNase-free: Invitrogen, Cat. No. A[…]; • Manganese chloride solution: Sigma-Aldrich, Cat. No. M1787; • EGTA: Sigma-Aldrich, Cat. No. E4378; • TWEEN®20: Sigma-Aldrich, Cat. No. P2287; • DTT: Sigma-Aldrich, Cat. No. DTT-RO; • 384-well plate: Corning, Cat. No. 3676; • 384-well plate: Corning, Cat. No. 4514; • Envision multi-mode plate reader: PerkinElmer; 4EBP1 is the substrate of mTOR, and when mTOR is activated, it will phosphorylate […] of the 4EBP1 protein. LanthaScreenTM kinase assay is used to detect the amount of phosphorylated substrate GFP-4E-BP1 produced in kinase activity experiments, thereby judging the mTOR kinase activity, and through the strength of the kinase activity, distinguishing the inhibitory effects of different compounds on the activity of FRAP1 (mTOR) kinase. […] Then, the 384-well plate was placed in a constant temperature incubator protected from light and incubated at room temperature for 1 hour. […] The 384-well plate was taken out and the plate was read using an Envision multi-mode plate reader (the excitation light wavelength was 320 nm and the emission light wavelengths were 495 nm and 520 nm). The inhibition rate was calculated using the formula as below: [formula]

| Compound | IC50 [nM] |
| --- | --- |
| COc1ncc(-c2ccc3ncc4cnc(C5CCC5)n4c3c2)cc1NS(=O)(=O)N1CCNCC1 [Compound 18] | 6.2 |
| COc1ncc(-c2ccc3ncc4ncc(C5CC5)n4c3c2)cc1NS(=O)(=O)N1CCNCC1 [Compound 23] | 3.4 |
| COc1ncc(-c2ccc3ncc4c(c3c2)n(C2CC(F)(F)C2)c(=O)n4C)cc1NS(=O)(=O)N1CCNCC1 [Compound 25] | 10.8 |
| COc1ncc(-c2ccc3ncc4c(c3c2)n([C@@H]2C[C@@H]2F)c(=O)n4C)cc1NS(=O)(=O)N1CCNCC1 [Compound 27] | 6.4 |
| COc1ncc(-c2ccc3ncc4c(c3n2)n(C2CC2)c(=O)n4C)cc1NS(=O)(=O)N1CCNCC1 [Compound 28] | 2.8 |

These compounds were tested against ATM(h) (Homo sapiens, UniProt Q13315) (assay: ATM(h) kinase activity, HTRF (Eurofins Cerep)). Settings: read-out: ATM(h) (enzyme, IC50).
Assay type: biochemical
Protocol: (§5) The […], ATM(h), ATR/ATRIP(h), and DNA-PK (h) were detected by HTRFR.
(§6) The calculation formula was as follows: […]
(§7) For IC50 determination, the data were analyzed using XLFit version 5.3 (ID Business Solutions).

ATM(h), sequence (Q13315 whole entry): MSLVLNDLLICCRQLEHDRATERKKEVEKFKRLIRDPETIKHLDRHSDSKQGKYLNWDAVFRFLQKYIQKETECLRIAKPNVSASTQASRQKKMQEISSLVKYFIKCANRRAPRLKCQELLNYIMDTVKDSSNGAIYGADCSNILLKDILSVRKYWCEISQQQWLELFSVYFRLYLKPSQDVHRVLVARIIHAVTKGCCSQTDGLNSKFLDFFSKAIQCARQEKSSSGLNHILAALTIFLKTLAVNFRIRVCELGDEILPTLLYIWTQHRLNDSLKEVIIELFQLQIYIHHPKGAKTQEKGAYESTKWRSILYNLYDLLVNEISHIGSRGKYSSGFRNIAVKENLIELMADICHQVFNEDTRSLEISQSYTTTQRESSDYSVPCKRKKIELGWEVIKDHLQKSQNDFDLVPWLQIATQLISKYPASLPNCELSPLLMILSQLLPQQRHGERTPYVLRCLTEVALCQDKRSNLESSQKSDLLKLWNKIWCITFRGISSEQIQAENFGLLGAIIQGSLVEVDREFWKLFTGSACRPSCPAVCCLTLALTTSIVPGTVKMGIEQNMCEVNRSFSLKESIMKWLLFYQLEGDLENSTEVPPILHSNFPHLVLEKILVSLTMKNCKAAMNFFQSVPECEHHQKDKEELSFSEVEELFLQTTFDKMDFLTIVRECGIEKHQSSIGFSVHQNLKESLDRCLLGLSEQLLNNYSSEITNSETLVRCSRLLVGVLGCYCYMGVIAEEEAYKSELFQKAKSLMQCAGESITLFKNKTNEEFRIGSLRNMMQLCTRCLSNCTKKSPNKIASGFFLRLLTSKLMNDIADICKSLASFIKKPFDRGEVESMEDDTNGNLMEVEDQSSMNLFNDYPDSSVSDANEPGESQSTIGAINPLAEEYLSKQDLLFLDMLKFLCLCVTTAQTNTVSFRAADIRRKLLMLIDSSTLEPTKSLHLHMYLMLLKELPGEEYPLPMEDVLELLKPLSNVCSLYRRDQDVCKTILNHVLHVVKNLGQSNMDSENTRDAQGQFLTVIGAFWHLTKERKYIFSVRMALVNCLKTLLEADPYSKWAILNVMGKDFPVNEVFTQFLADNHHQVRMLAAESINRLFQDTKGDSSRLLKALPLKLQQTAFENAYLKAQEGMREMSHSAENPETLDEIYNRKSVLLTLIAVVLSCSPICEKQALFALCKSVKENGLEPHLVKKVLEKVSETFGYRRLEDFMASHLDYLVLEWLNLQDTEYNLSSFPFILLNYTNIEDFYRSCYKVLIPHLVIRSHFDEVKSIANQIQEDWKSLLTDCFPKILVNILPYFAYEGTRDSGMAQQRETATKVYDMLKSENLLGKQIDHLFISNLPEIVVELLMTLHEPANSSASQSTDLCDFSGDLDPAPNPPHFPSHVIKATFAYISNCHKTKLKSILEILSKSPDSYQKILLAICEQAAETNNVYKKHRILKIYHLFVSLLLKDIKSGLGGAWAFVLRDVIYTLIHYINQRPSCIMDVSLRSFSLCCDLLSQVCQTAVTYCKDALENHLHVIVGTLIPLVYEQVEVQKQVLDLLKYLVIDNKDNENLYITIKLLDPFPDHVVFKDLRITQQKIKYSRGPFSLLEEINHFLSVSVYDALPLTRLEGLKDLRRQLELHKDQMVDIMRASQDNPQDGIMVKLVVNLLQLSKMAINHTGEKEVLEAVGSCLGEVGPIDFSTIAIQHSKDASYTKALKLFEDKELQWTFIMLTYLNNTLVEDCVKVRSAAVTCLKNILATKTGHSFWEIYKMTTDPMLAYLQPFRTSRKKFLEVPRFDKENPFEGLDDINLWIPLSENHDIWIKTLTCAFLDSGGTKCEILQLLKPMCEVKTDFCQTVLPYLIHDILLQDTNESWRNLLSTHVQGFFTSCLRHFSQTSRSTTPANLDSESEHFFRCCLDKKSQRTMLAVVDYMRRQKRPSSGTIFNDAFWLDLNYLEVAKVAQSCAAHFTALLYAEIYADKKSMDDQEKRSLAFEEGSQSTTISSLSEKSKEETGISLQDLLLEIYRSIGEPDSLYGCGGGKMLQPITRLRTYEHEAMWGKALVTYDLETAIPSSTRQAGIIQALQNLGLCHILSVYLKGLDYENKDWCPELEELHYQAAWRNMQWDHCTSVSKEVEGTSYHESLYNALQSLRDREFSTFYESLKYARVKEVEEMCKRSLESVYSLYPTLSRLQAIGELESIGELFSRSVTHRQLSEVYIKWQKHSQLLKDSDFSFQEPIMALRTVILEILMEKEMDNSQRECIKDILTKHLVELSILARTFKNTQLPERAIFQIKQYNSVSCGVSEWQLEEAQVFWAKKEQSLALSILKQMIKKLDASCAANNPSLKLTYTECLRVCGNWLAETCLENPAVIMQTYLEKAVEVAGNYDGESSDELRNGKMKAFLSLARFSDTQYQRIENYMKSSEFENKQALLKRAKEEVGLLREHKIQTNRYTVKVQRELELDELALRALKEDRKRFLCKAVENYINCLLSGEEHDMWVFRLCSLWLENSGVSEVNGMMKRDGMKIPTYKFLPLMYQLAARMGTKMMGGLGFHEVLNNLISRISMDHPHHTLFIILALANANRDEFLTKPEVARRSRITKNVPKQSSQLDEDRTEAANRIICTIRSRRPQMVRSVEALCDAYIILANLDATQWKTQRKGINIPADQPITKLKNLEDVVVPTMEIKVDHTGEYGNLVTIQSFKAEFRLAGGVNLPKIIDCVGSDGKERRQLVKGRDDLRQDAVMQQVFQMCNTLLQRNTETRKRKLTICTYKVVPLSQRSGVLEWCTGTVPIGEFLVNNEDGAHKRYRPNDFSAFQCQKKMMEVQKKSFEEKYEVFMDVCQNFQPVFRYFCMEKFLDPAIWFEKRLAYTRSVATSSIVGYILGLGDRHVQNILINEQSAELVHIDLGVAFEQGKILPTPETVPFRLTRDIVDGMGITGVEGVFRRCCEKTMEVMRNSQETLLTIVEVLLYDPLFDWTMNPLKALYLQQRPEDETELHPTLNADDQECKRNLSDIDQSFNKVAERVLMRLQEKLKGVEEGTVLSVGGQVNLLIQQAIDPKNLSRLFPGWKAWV

| Compound | IC50 [nM] |
| --- | --- |
| COc1ncc(-c2ccc3ncc4c(c3c2)n([C@@H]2C[C@@H]2F)c(=O)n4C)cc1NS(=O)(=O)N1CCNCC1 [Compound 27] | 0.7 |
| COc1ncc(-c2ccc3ncc4c(c3n2)n(C2CC2)c(=O)n4C)cc1NS(=O)(=O)N1CCNCC1 [Compound 28] | 0.6 |
| COc1ncc(-c2ccc3ncc4c(C)nc(C5CC5)n4c3c2)cc1NS(=O)(=O)N1CCNCC1 [Compound 31] | 0.4 |
| COc1ncc(-c2ccc3ncc4c(c3c2)n(CC(F)(F)F)c(=O)n4C)cc1NS(=O)(=O)N1CCNCC1 [Compound 32] | 0.6 |

Each compound was assayed against T3, ATR/ATRIP(h) (Homo sapiens, UniProt Q13535) (assay: ATR/ATRIP(h) kinase activity, HTRF (Eurofins Cerep)). Settings: read-out: ATR/ATRIP(h) (enzyme, IC50).
T3 construct: purchased Eurofins Cerep 14-953
Assay type: biochemical
Protocol: as §5, §6, §7

| Compound | IC50 [nM] |
| --- | --- |
| COc1ncc(-c2ccc3ncc4c(c3c2)n([C@@H]2C[C@@H]2F)c(=O)n4C)cc1NS(=O)(=O)N1CCNCC1 [Compound 27] | 17 |
| COc1ncc(-c2ccc3ncc4c(c3n2)n(C2CC2)c(=O)n4C)cc1NS(=O)(=O)N1CCNCC1 [Compound 28] | 13 |
| COc1ncc(-c2ccc3ncc4c(C)nc(C5CC5)n4c3c2)cc1NS(=O)(=O)N1CCNCC1 [Compound 31] | 15 |
| COc1ncc(-c2ccc3ncc4c(c3c2)n(CC(F)(F)F)c(=O)n4C)cc1NS(=O)(=O)N1CCNCC1 [Compound 32] | 17 |

The compounds below were run against T4, DNA-PK(h) (Homo sapiens, UniProt P78527) (assay: DNA-PK(h) kinase activity, HTRF (Eurofins Cerep)). Settings: read-out: DNA-PK(h) (enzyme, IC50).
T4 construct: purchased Eurofins Cerep 14-950
Assay type: biochemical
Protocol: as §5, §6, §7

| Compound | IC50 [nM] |
| --- | --- |
| COc1ncc(-c2ccc3ncc4c(c3c2)n([C@@H]2C[C@@H]2F)c(=O)n4C)cc1NS(=O)(=O)N1CCNCC1 [Compound 27] | 0.2 |
| COc1ncc(-c2ccc3ncc4c(c3n2)n(C2CC2)c(=O)n4C)cc1NS(=O)(=O)N1CCNCC1 [Compound 28] | 0.3 |
| COc1ncc(-c2ccc3ncc4c(C)nc(C5CC5)n4c3c2)cc1NS(=O)(=O)N1CCNCC1 [Compound 31] | 0.2 |
| COc1ncc(-c2ccc3ncc4c(c3c2)n(CC(F)(F)F)c(=O)n4C)cc1NS(=O)(=O)N1CCNCC1 [Compound 32] | 0.3 |
